Test results: patent US20170176412A1, “METHOD FOR PREDICTING OPTION OF DEPRESSION TREATMENT DRUG” (Human Metabolome Technologies Inc., priority 2014, published 2017)

Experiments:
[1] = system: blood PEA level of depressed patient; assay: Blood PEA level of depressed patients during continuous administration (Example 2); assay type: in vivo; settings: for Blood PEA level Before administration: before administration in Example 1, patients with continuous administration; for Blood PEA level After continuous administration / Blood PEA level During continuous administration: continuous administration periods about 6 to 24 months
Procedure: Among the patients to whom the depression treatment drug was administered in Example 1, the patients who received continuous administration also after the period of Example 1 were investigated. The number of patients who received continuous administration of the SNRI was nine. On the other hand, the number of patients who received continuous administration of the SSRI was five. Although the continuous administration periods (including the administration period in Example 1) variably depended on the patients, they ranged from about 6 to 24 months. The blood PEA levels in the course of and after the end of the continuous administration of these patients were measured in the same procedure as in Example 1.
• t-test: Significant difference test of blood PEA level after continuous administration with respect to that before administration

[2] = system: blood PEA level of depressed patient; assay: Blood PEA level of depressed patients before and after administration of SNRI or SSRI (Example 1); assay type: in vivo; settings: average value; for Blood PEA level After administration: after administration period of about 0.5 to 7 months; for Blood PEA level Before administration: baseline of the drug group, plasma, ion chromatography fluorescent detection
Procedure: After an informed consent was given to a patient who visited the clinic of the inventors, the patient's blood was collected. The blood PEA level was measured using an ion chromatography fluorescent detection method according to the following procedure. 50 μL of plasma and 450 μL of Milli-Q water were put in an Eppendorf tube and mixed by vortexing. The mixture was transferred to an ultrafiltration filter ([…] 5 kDa cut filter, Millipore Corporation), and subjected to centrifugal filtration (4° C., 9,100×g, 2 hours) until the solution in the filter disappeared. […] As subjects, 30 patients having the blood PEA levels ranging from 0.77 to 2.62 μM were employed. As a depression treatment drug, the SSRI or SNRT shown in Table 3 was administered to the patients. The blood PEA level after the administration was measured in the same procedure as before the administration. Although the administration periods variably depended on the patients, they ranged from about 0.5 to 7 months.

| SMILES | Blood PEA level Before administration [1] [µM] | Blood PEA level After continuous administration [1] [µM] | Blood PEA level During continuous administration [1] [µM] | Blood PEA level After administration [2] [µM] | Blood PEA level Before administration [2] [µM] |
| --- | --- | --- | --- | --- | --- |
| CNCC[C@H](Oc1cccc2ccccc12)c1cccs1 [Duloxetine, duloxetine] | 1.11 | 1.82 | 1.47 | 1.46 | 1.10 |
| CN(C)CCC[C@@]1(c2ccc(F)cc2)OCc2cc(C#N)ccc21 [Escitalopram, escitalopram] | – | 1.73 | – | 1.22 | – |
| CCN(CC)C(=O)C1(c2ccccc2)CC1CN (stereo not drawn) [Milnacipran, milnacipran] | 1.44 | 1.94 | 1.71 | 1.66 | 1.27 |
| Fc1ccc([C@@H]2CCNC[C@H]2COc2ccc3c(c2)OCO3)cc1 [Paroxetine, paroxetine] | – | – | – | 1.21 | 1.42 |
| CN[C@H]1CC[C@@H](c2ccc(Cl)c(Cl)c2)c2ccccc21 [Sertraline, sertraline] | 1.39 | 1.47 | – | 1.26 | 1.39 |
